Test results: patent US20100204151A1, “USE OF A PEPTIDE AS A THERAPEUTIC AGENT” (priority 2007, published 2010)

Tested on: drug-resistant Mycobacterium tuberculosis
Conditions: peptide 10 micrograms per ml, seven days

Substance: Ac-HWAVGHL-NH2 [Acetyl-GRP (20-26), Ac-His-Trp-Ala-Val-Gly-His-Leu-NH2]
- % inhibition: 0.0%
